Reference: patent US10100077B2, “6-aryl-9-glycosylpurines and use thereof” (UNIVERZITA PALACKEHO V OLOMOUCI, priority 2014, dated 2018)
pIC50: −log10 of the molar value.

Legend:
[1] = tested on: skin fibroblasts BJ and keratinocytes HaCaT; test: MTT in vitro cytotoxicity test for skin cells; assay type: cell-based; settings: Homo sapiens; MTT, 72 hour treatment, BJ and HaCaT, maximal concentration 50 microM
Summary of the method: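 BJ fibroblasts and HaCaT keratinocytes (~5,000 cells/well, seeded 24 h prior) exposed 72 h to sixfold dilutions from 50 microM; DMSO vehicle as negative control. MTT added at 0.5 mg/ml final for 3 h, formazan dissolved in DMSO, absorbance read at 570 nm (640 nm reference). IC50 taken from dose-response curves.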

[2] = tested on: EpiDERM 3D model of epidermis; test: In vitro test of skin irritation in EpiDERM; assay type: cell-based
Procedure: EpiDERM™ is a 3D model of epidermis manufactured by Mattek company. The effects of tested substances are evaluated by MTT. 2 solutions (2 application forms) of the compounds 6-furfurylamino-9-β-D-arabinofuranosylpurine and 6-(3-methoxybenzylamino)-9-β-D-arabinofuranosylpurine in concentrations 1 mM a 200 microM in 0.5% DMSO/99.5% PBS were evaluated according to a standard protocol “INVITRO EpiDerm™ SKIN IRRITATION TEST”. After a preincubation of the tissues, 30 microliters of the application form solution were applied on the individual tissues. The exposition time was 60 minutes. Three tissues were used for each tested concentration as well as for controls. Following washing out of the applied solution, the tissues were incubated for 42 hour in order to allow a reparation of possible damage. In the next step, the tissue was incubated with MTT for 3 hours. The resulting formazan was extracted to isopropanol. Relative viability of the individual tissues was calculated as a percentage of viability of the average of the negative controls. Average viability of the tissues treated with 1 mM solution of the test substance was 99.3% for the compound 6-(3-methoxybenzylamino)-9-β-D-arabinofuranosylpurine and 98.0% for the compound 6-(furfurylamino)-9-β-D-arabinofuranosylpurine where 100% is an average viability of the tissues treated with the solvent only. None of the tested compounds in any of the concentrations caused any tissue damage or irritation. The compounds were evaluated as non-irritant in the tested concentrations.

[3] = tested on: detached leaf segments of Triticum aestivum cv. Hereward; test: Senescence bioassay on wheat leaf segments (chlorophyll retention); settings: chlorophyll retention at maximum effective concentration, 96 h dark
Procedure: Seeds of winter wheat, Triticum aestivum cv. Hereward, were washed under running water for 24 hours and then sown on vermiculite soaked with Knop's solution. They were placed in the growth chamber at 25° C. with a 16/8 h light period at 50 μmol·m^−2·s^−1. After 7 days, the first leaf was fully developed and the second leaf had started to grow. A tip section of the first leaf, approximately 35 mm long, was removed from 5 seedlings and trimmed slightly to a combined weight of 100 mg. The basal ends of the five leaf tips were placed in the wells of a microtiter polystyrene plate containing 150 μL, of the tested derivative solution each. The entire plate was inserted into a plastic box lined with paper tissues soaked in distilled water to prevent leaf sections from drying out. After 96 h incubation in the dark at 25° C., the leaves were removed and chlorophyll extracted by heating at 80° C. for 10 min in 5 mL of 80% ethanol (v/v). The sample volume was then restored to 5 mL by the addition of 80% ethanol (v/v). The absorbance of the extract was recorded at 665 nm. In addition, chlorophyll extracts from fresh leaves and leaf tips incubated in deionised water were measured. The results are means of five replicates and the entire test was repeated twice. […] The compounds to be tested were dissolved in dimethylsulfoxide (DMSO) and the solution brought up to 10^−3M with distilled water. This stock solution was further diluted with the respective media used for the biotest to a concentration ranging from 10^−8M to 10^−4M. […] The activity obtained for 10^−4 M of BAP was postulated as 100%.

[4] = Calcein AM cytotoxicity assay, K562; assay type: cell-based, human; settings: human, K562 erythroleukemia cells
Summary of the method: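 K562, MCF-7 and NIH3T3 cells (10^4/well) in DMEM with 10% FBS were preincubated for 24 hrs, then given six 4-fold dilutions, usually from 166.7 μM, in duplicate for 72 hrs at 37° C. Viability was read by Calcein AM fluorescence after 1 hour, with GI50 from survival relative to control.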

In the case of COc1cccc(CNc2ncnc3c2ncn3[C@@H]2O[C@H](CO)[C@@H](O)[C@@H]2O)c1 [6-(3-methoxybenzylamino)-9-β-D-arabinofuranosylpurine], the pIC50 [1] was under 4.30, the skin irritation evaluation ([2]; 1 mM and 200 microM in 0.5% DMSO/99.5% PBS) was “non-irritant” and the “Average viability of the tissues” value ([2]; 1 mM solution, 60 minutes exposition, 100% = solvent only) was 99.3%. The “activity (%) [10^−4 mol · l^−1 BAP = 100%]” value [3] was 118 ± 2% and the GI50 at 72 h [4] was over 100 µM.
